In patent publication US5312833A, “Method of inhibiting tumor growth using xanthocillin X dimethylether” (Meiji Seika Kaisha, Ltd., priority 1990, dated 1994):
Values after ≈ are worked out from the molar mass of the structure shown.

How the values were obtained:
Meth-A = test: In vitro cytotoxicity, MTT assay, Meth-A; assay type: cell-based, murine; conditions: Mus musculus, 72 h, 3 days incubation, read-out: IC50 (drug concentration to kill 50% of the cells)
Experimental: (§1) The effect of a preparation containing xanthocillin X dimethylether on cancer cells was determined by an in vitro test. For a medium, the Modified Dulbecco Minimum Essential Medium combined with 10% fetal serum was placed in a culture dish. The cytotoxic activity was observed on various cancer cells (set forth in Table 1 below) that were serially cultured in this medium in a CO2 incubator. First, the respective cancer cells were suspended in the aforementioned culture medium at a concentration of 5×10^4 cells/ml. Then 135 μl of the suspension was added to a micro-titer plate having 96 wells. Next, 15 μl of the test compound solution was added, and the plates were incubated in CO2 for 3 days. The survival of the cells after the incubation period was determined by the MTT assay (Igaku no Ayumi, Vol. 128, pages 733-735, 1984).

B16 = test: In vitro cytotoxicity, MTT assay, B16; assay type: cell-based; conditions: Mus musculus, 72 h, 3 days incubation, read-out: IC50 (drug concentration to kill 50% of the cells)
Experimental: as §1

[1] = test system: Lewis carcinoma of the lung; test: In vitro cytotoxicity, MTT assay, Lewis carcinoma of the lung; assay type: cell-based; conditions: 72 h, 3 days incubation, read-out: IC50 (drug concentration to kill 50% of the cells)
Experimental: as §1

P388 = test: In vitro cytotoxicity, MTT assay, P388; assay type: cell-based; conditions: Mus musculus, 72 h, 3 days incubation, read-out: IC50 (drug concentration to kill 50% of the cells)
Experimental: as §1

prostaglandin synthesis = conditions: literature; cited from earlier work
[2] = Acute toxicity in Balb/c mice; conditions: mouse, in vivo, ip, injected into the peritoneal cavity, 7-week-old females, survival over 2 weeks, suspension in 1% CMC
Experimental: Xanthocillin X dimethylether (by way of the same suspension as used in Example 3) was injected into the peritoneal cavity of Balb/c mice (7-week-old females). The animals were reared for the next 2 weeks and their survival was recorded.

Meth-A solid tumor = test: Suppression of growth of Meth-A solid tumor in Balb/c mice; assay type: in vivo
Experimental: 0.1 ml of 10^7 cells/ml of murine fibrosarcoma Meth-A (ascites) were inoculated subcutaneously into Balb/c mice (6-week-old, females) and the test agent was injected intraperitoneally into the mice on the next day.
The test compound had been thoroughly pulverized in a mortar, suspended in 1% carboxymethylcellulose (CMC), and mixed well using ultrasonic. The test compound was administered once daily for 4 consecutive days. Following 2 weeks of rearing, the tumor on the back was excised and its weight was recorded. The percentage by which tumor development was suppressed was computed as follows: {(tumor weight of the control-tumor weight of the test group)/tumor weight of the control group}×100.

cancer cells = test: In vitro cytotoxicity on various cancer cells (MTT assay), summary; assay type: cell-based; conditions: as indicated in Table 1
Experimental: as §1

## [C-]#[N+]C(=Cc1ccc(OC)cc1)C(=Cc1ccc(OC)cc1)[N+]#[C-] [xanthocillin X dimethylether]
Meth-A
  IC50: 0.71 µg/mL (≈ 2.24 µM)
B16
  IC50: 0.45 µg/mL (≈ 1.42 µM)
[1]
  IC50: 0.46 µg/mL (≈ 1.45 µM)
P388
  IC50: 0.67 µg/mL (≈ 2.12 µM)
Prostaglandin synthesis
  inhibition of prostaglandin synthesis (in words): specific inhibitor of prostaglandin synthesis
[2]
  LD50 at 336 h: > 120 mg/kg
Meth-A solid tumor; 30 mg/kg/day intraperitoneally, once daily for 4 consecutive days, after 2 weeks, computed from tumor weights versus control (1% CMC)
  Percentage suppression of tumor growth: 88.5 Percentage
Meth-A solid tumor; 30 mg/kg/day intraperitoneally, once daily for 4 consecutive days, tumor excised after 2 weeks, mean ± standard deviation, control 0.96 ± 0.60 g
  Tumor weight: 0.11 ± 0.10 g
Meth-A solid tumor; as shown in Table 2
  suppression of growth of Meth-A solid tumors (in words): markedly suppressed the growth of Meth-A solid tumors
Cancer cells
  cytotoxicity to a series of cancer cells (in words): cytotoxic to a series of cancer cells
